Like-named read-outs stand apart in the source and are kept apart here.
Columns and labels:
[1] = test system: SKVLB-1 cell line (P-glycoprotein-overexpressing sub-line of SK-OV-3); assay: Inhibition of cell proliferation, SRB assay, multidrug-resistant SKVLB-1; type: cell-based, human; settings: for IC50: Homo sapiens, read-out: IC50 for inhibition of cell proliferation; for Resistance Factor: drug-resistant SKVLB-1 versus parental SK-OV-3 IC50
Experimental: (§1) The A-10 rat aortic smooth muscle and SK-OV-3 human ovarian carcinoma cell lines were obtained from the American Type Culture Collection (Manassas, Va.) and were cultured in BME containing 10% FBS and 50 μg/mL gentamycin sulfate. A sub-line of SK-OV-3 selected for resistance to vinblastine (SKVLB-1) was provided by Dr. Victor Ling (British Columbia Cancer Center, Vancouver, British Columbia) and was maintained in BME containing 10% FBS and 50 μg/mL gentamycin sulfate. The MDA-MB-435 human mammary adenocarcinoma cell line was obtained from Dr. Mai Higazi (Georgetown University, Washington, D.C.), and was maintained in Richters medium containing 10% FBS and 50 μg/mL gentamycin sulfate. Vinblastine was added to a final concentration of 1 μg/mL to SKVLB-1 cells 24 hours after passage to maintain selection pressure for P-glycoprotein-overexpressing cells.
(§2) The IC50 for inhibition of cell proliferation was determined by measuring cell-associated protein after drug treatment using the sulforhodamine B assay.
(§3) The early literature on laulimalide reported that it was a cytotoxin, but without specifying a mechanism. Experiments were conducted to determine the IC50 values for laulimalide and isolaulimalide in two drug-sensitive cell lines, MDA-MB-435 and SK-OV-3, and in a multidrug-resistant cell line, SKVLB-1. Cells were treated with varying concentrations of the drugs for 48 hours, and cell-associated protein was determined using the SRB assay. The IC50 for each compound was calculated for each cell line.

A-10 cells [2] = assay: Micronuclei formation, DAPI staining; type: cell-based, rat; settings: for effect on nuclear structure: A-10 and SK-OV-3 cells, wide range of concentrations; for cells exhibiting micronuclei: A-10 cells, 0.02-2 μM, 18 hours
Experimental: FIG. 1 is a graphic representation comparing the effects of Laulimalide and paclitaxel on micronuclei formation, in which A-10 cells were treated for 18 hours with Laulimalide or paclitaxel, the cells were fixed and nuclei were visualized by DAPI staining;
(§4) For the staining of microtubules and intermediate filaments, the cells were fixed with cold methanol for 5 minutes, blocked for 20 minutes with PBS containing 10% calf serum to block nonspecific binding sites, and incubated at 37° C. for 90 min with monoclonal anti-β-tubulin at the dilutions recommended by the manufacturer. Bound primary antibodies were subsequently visualized by a one hour incubation with fluorescein(FITC)-conjugated sheep antimouse IgG (F-3008; Sigma). The coverslips were washed, stained with 0.1 μg/mL DAPI for 10 minutes, mounted on microscope slides and the fluorescence patterns were examined and photographed using a Zeiss Axioplan microscope equipped with epifluorescence optics for fluorescein and DAPI.
The effects of laulimalide on nuclear structure are visible: The normal rounded shape of the nucleus, which is devoid of microtubules, can be detected, whereas in laulimalide-treated cells this distinct microtubule-free area containing the discrete central nucleus was lost and only vesicle-like areas devoid of microtubules remained. […] Similar nuclear changes occurred with isolaulimalide. Paclitaxel also initiated the formation of micronuclei, as has been reported by others.
The difference between the two drugs was statistically significant at all five concentrations tested (P<0.0001).

A-10 cells [3] = assay: Immunofluorescence of cellular microtubules and mitotic spindles; type: cell-based, rat; settings: for sensitivity of stabilized cellular microtubules to vinblastine / morphological effects on cellular microtubules: A-10 cells; for effect on mitotic spindles: A-10 cells and SK-OV-3 cells; for morphological effects on cellular microtubules: 18 hours, laulimalide 2 μM, isolaulimalide 2-20 μM, paclitaxel 1-20 μM
Experimental: A-10 cells were grown to 70-85% confluence on glass coverslips in BME supplemented with 10% FBS. Drug compounds in PBS were added to the indicated final concentrations and cells were incubated for an additional […].
as §4
A-10 cells were treated with laulimalide, isolaulimalide, or paclitaxel for 18 hours and the morphological effects on microtubules examined by indirect immunofluorescence techniques.

[4] = test system: SK-OV-3 human ovarian carcinoma cell line; assay: Inhibition of cell proliferation, SRB assay, SK-OV-3; type: cell-based; settings: read-out: IC50 for inhibition of cell proliferation
Experimental: as §1, §2, §3

bovine brain tubulin = assay: Tubulin polymerization in vitro; type: biochemical; settings: for effect on tubulin polymerization (in words): absence of polymerization promoters; for EC50: Table 2
From the text: FIG. 3 collectively is a graphic representation comparing the effects of Laulimalide and paclitaxel on tubulin polymerization, in which the polymerization of bovine brain tubulin was monitored, and in which:
One characteristic of the microtubule-stabilizing agents paclitaxel, discodermolide, epothilones A and B, and eleutherobin is the ability of these agents to initiate the polymerization of tubulin in the absence of polymerization promoters, such as glycerol. Studies were undertaken to determine the effects of laulimalide on tubulin polymerization.
Samples of the tubulin polymer formed were examined by electron microscopy to determine whether the increase in turbidity measured during the polymerization experiments was due to the formation of microtubule-like polymers or the formation of other structures.

[5] = test system: MDA-MB-435 human mammary adenocarcinoma cell line; assay: Inhibition of cell proliferation, sulforhodamine B (SRB) assay, MDA-MB-435; type: cell-based; settings: for IC50: Homo sapiens
Experimental: as §1, §2, §3

MDA-MB-435 cells = assay: Cell cycle distribution by flow cytometry; type: cell-based, human; settings: MDA-MB-435, 20 nM
Experimental: FIG. 2 collectively is a graphic representation comparing the effects of Laulimalide on cell cycle distribution, wherein log phase growth cultures of MDA-MB-435 cells were treated, the cells were fixed, stained, and analyzed on a Coulter EPICS XL-MCL flow cytometer and plotted as events versus propidium iodide fluorescene intensity, and in which:
A common characteristic of anti-microtubule agents is their ability to initiate mitotic arrest. […] This is consistent with the effects of other antimicrotubule agents, where disruption of microtubule dynamics prevents normal mitotic progression and leads to mitotic arrest. […] The mitotic cells were rounded, and the spindles formed a circular pattern with spindle microtubules radiating outward from a microtubule-free core in the center of the cell. In the mitotic cells, the nuclear membranes were not apparent, and the chromatin was condensed and aligned in a circular pattern.
The ultimate mechanism of action of many cytotoxic cancer chemotherapeutic agents is the initiation of pathways of gene and protein expression leading to apoptosis. Antimicrotubule drugs including paclitaxel, vinblastine, and cryptophycin 1 initiate apoptosis both in vitro and in vivo. […] The loss of cellular DNA is detected by the appearance of the subdiploid peak when apoptotic cells are analyzed by flow cytometry. […]

caspase 3 / PARP = assay: Caspase 3 activation and PARP proteolysis, immunoblot of cell lysates; type: cell-based; settings: cells treated 42 and 48 hours
From the text: During apoptosis, specific cysteine proteases called the caspases are activated. Activation of the caspase cascade leads to the proteolytic degradation of specific cellular proteins. The activation of caspase 3 and the proteolysis of the DNA repair enzyme PARP, a downstream substrate of caspase 3, were examined in cell lysates from laulimalide-treated cells. Activation of caspase 3 leads to the loss of the 32 kDa proenzyme and the formation of the activation products p17 and p12. […] The loss of the p32 proenzyme is seen at 48 hours. The specific proteolysis of PARP by caspase 3 leads to the formation of two products, an 89 kDa COOH-terminal fragment and a 24 kDa N-terminal fragment. The proteolysis of PARP and the appearance of the 89 kDa degradation product coincided with the activation of caspase 3.

[6] = test system: A-10 rat aortic smooth muscle cell line; assay: Inhibition of cell proliferation, A-10 nontransformed line; type: cell-based
Experimental: as §1, §2
The IC50 for inhibition of proliferation was also determined in the A-10 cell line, a nontransformed line that was used to show the effects of microtubule-stabilizing agents on cellular structures. […]

[7] = MDA-MB-435, 48 h, read-out: IC50 for inhibition of cell proliferation

Row | Compound | IC50 ([1]; SKVLB1, 48 h) [nM] | Resistance Factor [1] | effect on nuclear structure (A-10 cells [2]) | sensitivity of stabilized cellular microtubules to vinblastine (A-10 cells [3]) | effect on mitotic spindles (A-10 cells [3]) | morphological effects on cellular microtubules (A-10 cells [3]) | IC50 ([4]; SK-OV-3, 48 h) [nM] | effect on tubulin polymerization (in words) (bovine brain tubulin) | IC50 [5, 7] [nM] | cells exhibiting micronuclei (A-10 cells [2]) | polymerization of tubulin at 0° C. (bovine brain tubulin) | EC50 (bovine brain tubulin) [nM] | also measured
1 | C=C1C[C@H](C)C[C@@H]2CC=C[C@@H](C/C=C\C(=O)OC3CC(OC3/C=C/[C@@H]3CC(C)=CCO3)[C@@H](O)[C@@H](O)C1)O2 (stereo partly drawn) [Isolaulimalide, isolaulimalide] | 2650 | 1.03 | formation of multiple micronuclei | resistant to vinblastine-induced depolymerization | Abnormal mitotic spindles | increase in the density of cellular microtubules, but no microtubule bundles were present | 2570 | stimulated tubulin polymerization | 1970 |  |  |  | IC50 values, inhibition of cell proliferation (in words) ([5]; cell lines of Table 1): low μM range
2 | C=C1C[C@H](C)C[C@@H]2CC=C[C@@H](C/C=C\C(=O)OC([C@@H](O)/C=C/[C@@H]3CC(C)=CCO3)C[C@@H]3OC3[C@@H](O)C1)O2 (stereo partly drawn) [Laulimalide, laulimalide] | 1210 | 105 | formation of multiple micronuclei | resistant to vinblastine-induced depolymerization | Abnormal mitotic spindles | bundles of short tufts of microtubules | 11.5 ± 0.53 | stimulated tubulin polymerization | 5.74 ± 0.58 | approximately 60% | Neither paclitaxel nor laulimalide promoted the polymerization | 4320 ± 400 | subdiploid peak (apoptosis) (MDA-MB-435 cells; 18 hours): doubling of the subdiploid peak; effect on cell cycle (MDA-MB-435 cells; within nine hours): cell cycle arrest in G2-M; caspase 3 activation and PARP cleavage (caspase 3 / PARP): Caspase 3 was activated and PARP proteolytically cleaved; IC50 ([6]; A10, read-out: IC50 for inhibition of proliferation): 51000 nM; kinetics of tubulin formation relative to 20 μM paclitaxel (bovine brain tubulin; 20 μM): twice as fast; additional tubulin polymer formed relative to paclitaxel (bovine brain tubulin; 20 μM of each drug): approximately 30%; stability of tubulin polymers formed (bovine brain tubulin; cold and CaCl2): insensitive to cold and CaCl2-induced depolymerization; IC50 ([5]; MDA-MB-435, read-out: IC50 values, inhibition of cell proliferation (summary of Table 1)): 5 to 12 nM
3 | CC(=O)O[C@H]1C(=O)[C@@]2(C)[C@H]([C@H](OC(=O)c3ccccc3)[C@]3(O)C[C@H](OC(=O)[C@H](O)[C@@H](NC(=O)c4ccccc4)c4ccccc4)C(C)=C1C3(C)C)[C@]1(OC(C)=O)CO[C@@H]1C[C@@H]2O [Paclitaxel, reference compound] |  | >58,480 |  | resistant to vinblastine-induced depolymerization | Abnormal mitotic spindles | formation of a highly organized array of microtubules, some of which formed thick microtubule bundles |  |  |  | approximately 40% | Neither paclitaxel nor laulimalide promoted the polymerization | 1440 ± 60 | IC50 ([1]; SKVLB1, SKVLB (SKVLB-1), 48 hours, SRB, mean ± SD): > 100000 nM; inhibition of the SKVLB-1 cell line ([1]; concentrations up to 100 μM): ≤ 70%; IC50 ([4]; SK-OV-3, 48 hours, SRB, mean ± SD): 1.71 ± 1.07 nM; IC50 ([6]; A10, A-10 cell line, read-out: IC50 for inhibition of proliferation): 40000 nM; IC50 ([5]; MDA-MB-435, 48 hours, SRB, mean ± SD, read-out: IC50 for inhibition of cell proliferation): 1.02 ± 0.25 nM
